Laboratory results from article PMC6298744 (Biochemical pharmacology, 2018).
Where two headings read alike, the source gives them in different places.

Key:
human 5-HT1A receptor [1] = target: T1, human 5-HT1A receptor (Homo sapiens, UniProt P08908); assay: 5-HT1A receptor [^3H]8-OH-DPAT radioligand binding
T1 sequence (P08908 1-422): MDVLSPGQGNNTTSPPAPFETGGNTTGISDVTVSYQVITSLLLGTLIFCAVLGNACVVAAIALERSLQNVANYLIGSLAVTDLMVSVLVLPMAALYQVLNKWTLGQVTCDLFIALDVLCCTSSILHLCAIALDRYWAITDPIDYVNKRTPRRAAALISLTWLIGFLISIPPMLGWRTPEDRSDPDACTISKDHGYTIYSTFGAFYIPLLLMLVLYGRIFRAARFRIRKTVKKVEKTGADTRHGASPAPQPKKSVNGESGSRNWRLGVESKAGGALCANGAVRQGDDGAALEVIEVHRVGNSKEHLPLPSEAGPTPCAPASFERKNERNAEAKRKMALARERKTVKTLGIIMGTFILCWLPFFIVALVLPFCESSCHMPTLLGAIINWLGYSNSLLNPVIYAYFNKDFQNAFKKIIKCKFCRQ

5-HT2A receptor [2] = target: T2, 5-HT2A receptor (Homo sapiens, UniProt P28223); assay: biochemical; assay type: binding; details: for Selectivity (binding ratios) 5-HT2A : 5-HT1A / Selectivity (binding ratios) 5-HT2A : 5-HT2B / Selectivity (binding ratios) 5-HT2A : 5-HT2C: ratio of Ki values
T2 sequence (P28223 whole entry): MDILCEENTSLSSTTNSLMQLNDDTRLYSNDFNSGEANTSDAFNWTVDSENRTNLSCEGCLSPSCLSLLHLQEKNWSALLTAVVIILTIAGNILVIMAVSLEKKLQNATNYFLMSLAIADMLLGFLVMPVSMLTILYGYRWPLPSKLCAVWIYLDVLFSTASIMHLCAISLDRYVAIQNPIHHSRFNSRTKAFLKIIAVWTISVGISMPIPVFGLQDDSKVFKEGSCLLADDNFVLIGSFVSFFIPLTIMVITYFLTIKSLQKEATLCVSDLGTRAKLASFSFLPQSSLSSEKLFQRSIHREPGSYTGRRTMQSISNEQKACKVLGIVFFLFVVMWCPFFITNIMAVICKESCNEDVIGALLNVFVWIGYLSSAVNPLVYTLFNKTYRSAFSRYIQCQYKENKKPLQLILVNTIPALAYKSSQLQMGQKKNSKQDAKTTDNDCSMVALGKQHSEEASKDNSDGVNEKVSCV

human 5-HT1A receptor [3] = target: T1, human 5-HT1A receptor; assay: 5-HT1A receptor [^35S]GTPγS binding stimulation; assay type: biochemical
5-HT2A receptor [4] = target: T2, 5-HT2A receptor; assay: cell-based; assay type: cell-based; details: for EC50: mean ± sem
5-HT2B receptor [5] = target: T3, 5-HT2B receptor (Homo sapiens, UniProt P41595); assay: 5-HT2B receptor inositol monophosphate; assay type: cell-based; details: for % maximum stimulation, 5-HT2B stimulation of IP-1 formation: normalized to the maximal stimulation by 5-HT
T3 sequence (P41595 whole entry): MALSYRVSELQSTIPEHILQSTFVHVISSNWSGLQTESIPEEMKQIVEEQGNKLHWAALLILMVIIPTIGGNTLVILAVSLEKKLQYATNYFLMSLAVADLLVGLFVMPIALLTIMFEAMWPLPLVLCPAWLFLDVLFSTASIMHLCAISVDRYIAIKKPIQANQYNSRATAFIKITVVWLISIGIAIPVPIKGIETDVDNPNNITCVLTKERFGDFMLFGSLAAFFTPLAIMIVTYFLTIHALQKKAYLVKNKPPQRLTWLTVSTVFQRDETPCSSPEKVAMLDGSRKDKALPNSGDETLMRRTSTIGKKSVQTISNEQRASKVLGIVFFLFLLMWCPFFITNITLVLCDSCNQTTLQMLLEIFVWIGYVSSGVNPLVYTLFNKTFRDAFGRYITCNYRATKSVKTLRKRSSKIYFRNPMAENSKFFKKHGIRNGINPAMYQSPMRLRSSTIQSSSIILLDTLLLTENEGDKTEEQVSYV

5-HT2C receptor = target: T4, 5-HT2C receptor (Homo sapiens, UniProt P28335); assay: cell-based
T4 sequence (P28335 33-458): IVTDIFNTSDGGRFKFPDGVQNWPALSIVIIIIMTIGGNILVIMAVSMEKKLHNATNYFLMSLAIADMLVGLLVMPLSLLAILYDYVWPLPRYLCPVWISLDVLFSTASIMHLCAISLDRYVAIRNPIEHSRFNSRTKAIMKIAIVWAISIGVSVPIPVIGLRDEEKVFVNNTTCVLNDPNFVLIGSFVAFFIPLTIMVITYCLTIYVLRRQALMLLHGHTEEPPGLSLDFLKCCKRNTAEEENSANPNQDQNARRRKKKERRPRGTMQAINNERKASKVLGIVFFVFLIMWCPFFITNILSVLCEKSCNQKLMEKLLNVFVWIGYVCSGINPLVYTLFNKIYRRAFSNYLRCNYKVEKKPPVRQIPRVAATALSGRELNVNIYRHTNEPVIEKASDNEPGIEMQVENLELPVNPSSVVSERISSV

hDAT [6] = target: T5, hDAT (Homo sapiens, UniProt Q01959); assay: Inhibition of [^125I]RTI-55 binding to hDAT
T5 sequence (Q01959 whole entry): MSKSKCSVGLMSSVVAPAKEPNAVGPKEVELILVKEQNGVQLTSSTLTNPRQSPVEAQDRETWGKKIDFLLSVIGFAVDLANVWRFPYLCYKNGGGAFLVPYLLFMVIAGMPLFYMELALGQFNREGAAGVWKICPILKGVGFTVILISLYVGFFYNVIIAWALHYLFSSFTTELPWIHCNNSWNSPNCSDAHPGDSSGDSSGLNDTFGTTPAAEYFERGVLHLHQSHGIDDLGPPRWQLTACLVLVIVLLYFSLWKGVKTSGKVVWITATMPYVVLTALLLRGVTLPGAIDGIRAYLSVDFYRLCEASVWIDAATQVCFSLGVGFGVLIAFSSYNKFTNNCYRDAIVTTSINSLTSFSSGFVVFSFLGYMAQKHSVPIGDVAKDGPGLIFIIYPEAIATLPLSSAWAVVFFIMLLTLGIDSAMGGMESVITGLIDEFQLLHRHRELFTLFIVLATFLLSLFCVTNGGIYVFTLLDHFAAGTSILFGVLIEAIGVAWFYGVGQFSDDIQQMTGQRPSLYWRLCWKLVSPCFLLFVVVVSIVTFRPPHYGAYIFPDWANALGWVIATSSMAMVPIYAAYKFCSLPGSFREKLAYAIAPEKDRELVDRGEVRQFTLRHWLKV

hSERT [7] = target: T6, hSERT (Homo sapiens, UniProt P31645); assay: Inhibition of [^125I]RTI-55 binding to hSERT
T6 sequence (P31645 whole entry): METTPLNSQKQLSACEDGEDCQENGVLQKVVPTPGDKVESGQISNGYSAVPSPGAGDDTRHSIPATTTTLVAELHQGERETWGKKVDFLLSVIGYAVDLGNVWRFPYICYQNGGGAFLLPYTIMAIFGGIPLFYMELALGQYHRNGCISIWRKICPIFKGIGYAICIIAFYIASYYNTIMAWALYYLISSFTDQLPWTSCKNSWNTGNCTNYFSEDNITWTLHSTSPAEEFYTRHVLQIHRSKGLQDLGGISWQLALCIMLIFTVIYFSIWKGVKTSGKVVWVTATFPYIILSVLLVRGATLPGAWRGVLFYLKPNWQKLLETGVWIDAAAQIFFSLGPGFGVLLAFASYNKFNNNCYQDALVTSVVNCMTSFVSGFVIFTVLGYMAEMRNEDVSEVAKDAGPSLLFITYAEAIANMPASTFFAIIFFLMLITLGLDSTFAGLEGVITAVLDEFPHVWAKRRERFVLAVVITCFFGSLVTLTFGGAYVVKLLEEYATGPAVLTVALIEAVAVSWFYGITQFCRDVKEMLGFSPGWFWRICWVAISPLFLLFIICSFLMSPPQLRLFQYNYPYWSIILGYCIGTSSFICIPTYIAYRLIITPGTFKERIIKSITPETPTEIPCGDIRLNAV

hNET [8] = target: T7, hNET (Homo sapiens, UniProt P23975); assay: biochemical; assay type: binding
T7 sequence (P23975 whole entry): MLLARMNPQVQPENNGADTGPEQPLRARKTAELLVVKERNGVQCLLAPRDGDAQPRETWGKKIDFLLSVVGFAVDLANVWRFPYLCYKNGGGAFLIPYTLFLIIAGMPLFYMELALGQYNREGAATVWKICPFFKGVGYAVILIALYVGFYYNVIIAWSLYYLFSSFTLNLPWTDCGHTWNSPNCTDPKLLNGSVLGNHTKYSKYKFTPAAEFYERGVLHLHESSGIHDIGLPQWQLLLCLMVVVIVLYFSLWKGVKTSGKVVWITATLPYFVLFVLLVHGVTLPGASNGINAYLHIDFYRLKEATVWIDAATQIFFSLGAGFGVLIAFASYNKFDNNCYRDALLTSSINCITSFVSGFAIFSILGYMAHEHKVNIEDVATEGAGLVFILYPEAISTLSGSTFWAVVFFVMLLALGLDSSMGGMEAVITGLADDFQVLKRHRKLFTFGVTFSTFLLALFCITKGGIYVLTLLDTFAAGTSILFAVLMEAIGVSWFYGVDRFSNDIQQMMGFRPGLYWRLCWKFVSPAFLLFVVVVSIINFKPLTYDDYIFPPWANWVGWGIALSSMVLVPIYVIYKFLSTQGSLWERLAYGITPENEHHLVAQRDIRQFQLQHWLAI

hDAT [9] = target: T5, hDAT; assay: Inhibition of [^3H]DA uptake by HEK-hDAT cells; assay type: cell-based
hSERT [10] = target: T6, hSERT; assay: Inhibition of [^3H]5-HT uptake by HEK-hSERT cells; assay type: cell-based
hNET [11] = target: T7, hNET; assay: cell-based
hDAT [12] = target: T5, hDAT; assay: Release of preloaded [^3H]DA from HEK-hDAT cells; assay type: cell-based; details: for % maximum release, hDAT [^3H]DA: relative to maximum release induced by METH (1–10 μM)
hSERT [13] = target: T6, hSERT; assay: Release of preloaded [^3H]5-HT from HEK-hSERT cells; assay type: cell-based; details: for % maximum release, hSERT [^3H]5-HT: relative to maximum release induced by METH (0.3–1 mM)
hNET [14] = target: T7, hNET; assay: Release of preloaded [^3H]NE from HEK-hNET cells; assay type: cell-based; details: for % maximum release, hNET [^3H]NE: relative to maximum release induced by METH (0.3–1 μM)
5-HT2B receptor [15] = target: T3, 5-HT2B receptor; assay: 5-HT2B receptor [^3H]5-HT binding
[16] = normalized to the maximal stimulation by 5-HT
[17] = read-out: Inhibition of [^125I]RTI-55 binding Ki, hDAT, mean ± sem, HEK-hDAT
[18] = read-out: Inhibition of [^125I]RTI-55 binding Ki, hSERT, mean ± sem, HEK-hSERT
[19] = read-out: Inhibition of [^125I]RTI-55 binding Ki, hNET, mean ± sem, HEK-hNET
[20] = read-out: Drug-induced release of [^3H]neurotransmitter EC50, hDAT [^3H]DA, mean ± sem, HEK-hDAT
[21] = read-out: Drug-induced release of [^3H]neurotransmitter EC50, hSERT [^3H]5-HT, mean ± sem, HEK-hSERT
[22] = read-out: Drug-induced release of [^3H]neurotransmitter EC50, hNET [^3H]NE, mean ± sem, HEK-hNET

Compound | Selectivity (binding ratios) 5-HT2A : 5-HT1A (5-HT2A receptor [2]) | Selectivity (binding ratios) 5-HT2A : 5-HT2B (5-HT2A receptor [2]) | Selectivity (binding ratios) 5-HT2A : 5-HT2C (5-HT2A receptor [2]) | Selectivity (functional ratios) 5-HT2A: 5-HT2B (5-HT2A receptor [4]; ratio of EC50 values) | Selectivity (functional ratios) 5-HT2A: 5-HT2C (5-HT2A receptor [4]; ratio of EC50 values) | Ki (hSERT [7]) [nM] | Ki (hNET [8]) [nM] | IC50 (hSERT [10]) [nM] | IC50 (hNET [11]) [nM] | % maximum release, hDAT [^3H]DA (hDAT [12]) [%] | % maximum release, hSERT [^3H]5-HT (hSERT [13]) [%] | % maximum release, hNET [^3H]NE (hNET [14]) [%] | % maximum stimulation, 5-HT2B stimulation of IP-1 formation (5-HT2B receptor [5]) [%] | Ki (hDAT [6]; [17]) [nM] | Ki (hSERT [7]; [18]) [nM] | Ki (hNET [8]; [19]) [nM] | EC50 (hDAT [12]; [20]) [nM] | EC50 (hSERT [13]; [21]) [nM] | EC50 (hNET [14]; [22]) [nM] | further results
COc1cc(CCNCc2ccccc2O)c(OC)cc1I [25I-NBOH, 2-(((4-iodo-2,5-dimethoxyphenethyl)amino)methyl)phenol] | 13100 | 11 | 6.1 | 146 | 3.1 | 1220 ± 210 | 4060 ± 650 | 1720 ± 250 | 629 ± 93 | −0.56 ± 0.35 | −0.27 ± 0.40 | 16 ± 16 |  |  |  |  |  |  |  | Ki (human 5-HT1A receptor [1]): 2220 ± 590 nM; Ki (5-HT2A receptor [2]): 0.169 ± 0.013 nM; EC50 (human 5-HT1A receptor [3]): 37000 ± 13000 nM; Emax (human 5-HT1A receptor [3]; read-out: % maximum stimulation, 5-HT1A stimulation of [^35S]GTPγS binding): 74%; EC50 (5-HT2A receptor [4]; EC50, 5-HT2A stimulation of IP-1 formation): 0.76 ± 0.26 nM; Emax (5-HT2A receptor [4]; read-out: % maximum stimulation, 5-HT2A stimulation of IP-1 formation): 87.5%; EC50 (5-HT2B receptor [5]): 111 ± 13 nM; Emax (5-HT2B receptor [5]; read-out: % maximum stimulation, 5-HT2B stimulation of IP-1 formation): 21.3%; EC50 (5-HT2C receptor): 2.38 ± 0.72 nM; Emax (5-HT2C receptor; read-out: % maximum stimulation, 5-HT2C stimulation of IP-1 formation): 94%; Ki (hDAT [6]): 8500 ± 380 nM; IC50 (hDAT [9]): 30700 ± 5000 nM; EC50 (hDAT [12]): > 100000 nM; EC50 (hSERT [13]): > 100000 nM; EC50 (hNET [14]): > 100000 nM; Ki (5-HT2B receptor [15]): 1.91 ± 0.48 nM
COc1cc([N+](=O)[O-])c(OC)cc1CCNCc1ccccc1OC [25N-NBOMe] | 15700 | 60 | 7.4 | 92 | 2.6 |  |  |  |  | −0.89 ± 0.91 | −0.25 ± 0.54 | 25 ± 15 | 57.6 ± 8.6 | 37900 ± 4600 | 5810 ± 900 | 11300 ± 3500 | > 100000 | > 100000 | > 38000 | Ki (human 5-HT1A receptor [1]; read-out: Inhibition of radioligand binding Ki, 5-HT1A [^3H]8OH-DPAT, mean ± sem, recombinant human 5-HT1A in HEK cells, agonist radioligand): 2260 ± 230 nM; % maximum stimulation, 5-HT1A stimulation of [^35S]GTPγS binding (human 5-HT1A receptor [3]; [16]): 35.6 ± 6.6%; EC50 (human 5-HT1A receptor [3]; read-out: EC50, 5-HT1A stimulation of [^35S]GTPγS binding, mean ± sem): 4800 ± 1800 nM; % maximum stimulation, 5-HT2A stimulation of IP-1 formation (5-HT2A receptor [4]; [16]): 87.9 ± 3.4%; Selectivity (functional ratios) 5-HT2A: 5-HT1A (5-HT2A receptor [4]; ratio of EC50 values): 9400; EC50 (5-HT2A receptor [4]; read-out: EC50, 5-HT2A stimulation of IP-1 formation): 0.51 ± 0.19 nM; EC50 (5-HT2B receptor [5]; read-out: EC50, 5-HT2B stimulation of IP-1 formation, mean ± sem): 47 ± 11 nM; % maximum stimulation, 5-HT2C stimulation of IP-1 formation (5-HT2C receptor; [16]): 99.4 ± 0.4%; EC50 (5-HT2C receptor; read-out: EC50, 5-HT2C stimulation of IP-1 formation, mean ± sem): 1.32 ± 0.27 nM
CCN(CC)C(=O)[C@@H]1C=C2c3cccc4[nH]cc(c34)C[C@H]2N(C)C1 [LSD, (+)lysergic acid diethylamide, reference compound] |  |  |  |  |  |  |  |  |  | 7.4 ± 4.7 | −0.59 ± 0.55 | 35.7 ± 4.2 | 23.3 ± 4.9 | > 100000 | 62900 ± 5000 | 76900 ± 8500 | > 54000 | > 100000 | > 91000 | % maximum stimulation, 5-HT2A stimulation of IP-1 formation (5-HT2A receptor [4]): 0.706 ± 0.065 (3) 64.5 ± 6.3%
CN[C@@H](C)Cc1ccccc1 [METH, (S+)methamphetamine, reference compound] |  |  |  |  |  |  |  |  |  | 104.1 ± 1.3 | 104.9 ± 6.8 | 106.7 ± 3.3 |  |  |  |  | 430 ± 150 | 27500 ± 7000 | 152 ± 56 | 
OC1(c2ccc(Cl)cc2)c2ccccc2C2=NCCN21 (stereo not shown) [Mazindol, reference compound] |  |  |  |  |  | 127 ± 39 | 11.6 ± 3.5 | 69 ± 12 | 1.1 ± 0.3 |  |  |  |  |  |  |  |  |  |  | 
